How the values were obtained:
[1] = Serum concentration of DHEA after intravaginal application; assay type: in vivo; details: female, rat
Text: (§1) The insertion into the vagina of one suppository began on day 5 of the study and was continued once daily until day 18 of the study, for a total of 14 days of treatment. The suppository was gently placed in the vaginal opening and then delicately pushed about 2-3 mm inside the vagina with the help of a small, smooth glass stick, disinfected in 70% alcohol and dried between each animal.

rat vagina [2] = assay: Intravaginal DHEA suppository: vaginal epithelium morphology in OVX rats (Example 3); assay type: in vivo; details: 14 days
Text: (§2) The animals were housed individually and were allowed free access to water and rodent food (Lab Diet 5002, Ralston Purina, St-Louis, Mo.).
as §1
Vagina—including the urethra—and uterus were collected, and then trimmed as described below. For further analysis, two pieces of inguinal mammary gland were sampled, as well as a square piece of about 2 X 2 cm of shaved dorsal skin, the latter being put and gently flattened on a piece of carton.
Any other lipophilic base such as Fattibase, Wecobee, cocoa butter, theobroma oil or other combinations of Whitepsol bases could also be used. […] The proper amount of suppository base pellets to weight in order to obtain the final volume needed was calculated based on the previously measured density of the suppository base, which was 47.5 mg per 50 μl. The suppository base was put in a small beaker, melted in microwave at power 50% for about 3 min and 30 sec and then transferred on a heating plate, which was adjusted at the lowest power in order to keep the suppository base at a temperature of 50±3° C. […] These moulds were made from microcentrifuge tubes, each of them previously calibrated with 50 μl of water and cut at the level of the line drawn at the water surface. After 30 min of cooling at room temperature, the suppositories were put at 4° C. for another 30 min. Finally, the excess of base was trimmed with a razor blade and the suppositories were removed from their moulds and stored in closed glass bottles at 4° C. until use. They were allowed to reach room temperature before being applied to the animals.
The organs were immersed in 10% neutral buffered formalin immediately after resection. Each vagina and uterus was divided into 8 equal cross-segments and 4 cross-segments including two from the cervix and two from each of the two proximal and distal horns, respectively. The segments were then routinely processed and embedded all together in the same paraffin block.
Segment 6 represented the deeper vaginal mucosa and is separated from the uterine cervix by only one segment.

rat vagina [3] = assay: Histomorphometry: thickness of vaginal layers at the fifth segment; assay type: in vivo; details: OVX rats, 36 wk
Text: (§3) Animals from the intact and OVX control groups received the vehicle alone.
(§4) Twenty-four hours after the last dosing, overnight fasted animals were sacrificed under isoflurane anesthesia by exsanguination at the abdominal aorta (9 animals per group) or by intracardiac perfusion with 10% neutral buffered formalin (5 animals per group). Vaginae from non-perfused animals were collected and weighed, while the vaginae collected from perfused animals were marked with black ink on the ventral side, and then trimmed as described below.
(§5) The entire vagina of each perfused animal was post-fixed in 10% neutral buffered formalin.
Measurements of the different vaginal layers were performed on the fifth segment (FIG. 1), which is approximately halfway between the middle region and the portio vaginalis uteri (segment 7). […] Images were captured with a DC-330 3CCD color camera (Dage-MTI, Michigan City, Ind., USA) and quantified using Image-Pro Plus 3.0 software (Media Cybernetics, Silver Spring, Md., USA). Thus, using a ×5 objective (Leica Microsystems, Willowdale, Ont., Canada), 3 to 4 thickness measurements per layer were obtained from representative areas of the epithelium and muscularis, and for the three vaginal layers together. The total vaginal thickness, the thickness of the epithelium and the thickness of the muscularis were thus measured. The thickness of the lamina propria was obtained by subtracting the thickness of the epithelium and muscularis from total vaginal thickness.
(§6) Data are presented as means±SEM of 8-9 animals per group for vaginal weight or 5 animals per group for vaginal layer thickness determinations. Statistical significance was determined according to the multiple-range test of Duncan-Kramer (Kramer, 1956, Biometrics, 12: 307-310).

rat vagina [4] = details: ovariectomized rat, DHEA 30 mg twice daily on dorsal skin, one, three or six months; cited from earlier work
rat vagina [5] = assay: Histological evaluation of epithelium, lamina propria and muscularis in the seven rat vaginal segments; assay type: in vivo; details: OVX rats, 36 wk; for epithelium morphology: Acolbifene 2.5, Premarin 0.5 mg/kg oral, DHEA 80 mg/kg dorsal skin
Text: as §2, §3, §4, §5
The degree of compactness of collagen fibers in the vagina was categorized as low, moderate and high (FIGS. 6A-6C, respectively), as observed in the area proximal to the epithelium. <<Low>> and <<moderate compactness>> were associated with the presence of coarse collagen fibers loosely or less loosely aggregated together, respectively, while <<high compactness>> was the term used to describe tightly packed fine collagen fibers, displaying a smooth, textured appearance. In all the animals, there were relatively few fibrocytes in proportion to the amount of collagen, and they appeared predominantly flattened and shrunken.

PR = assay: Immunohistochemistry of PR in fifth vaginal segment; assay type: in vivo, rat; details: OVX rats, 36 wk
Description: as §3
(§7) Immunostaining was performed using Zymed SP kits (San Francisco, Calif.). Paraffin sections (4 μm) were deparaffinized in toluene and rehydrated through ethanol. Endogenous peroxidase activity was eliminated by preincubation with 3% H2O2 in methanol for 30 min. A microwave retrieval technique using citrate buffer (Tacha and Chen, 1994) was applied. After cooling the slides, non-specific binding was blocked using 10% goat serum for 20 min. Sections were then incubated for 1.5 h at room temperature with ERα (AB-1, Calbiochem, California), AR (N-20, Santa Cruz Biotechnology, California) or PR (Ab-4, NeoMarkers, California) antibodies, at 1:200, 1:250 and 1:250 respectively. After washing in PBS buffer, sections were incubated with biotinylated anti-rabbit secondary antibody for 10 min and thereafter with streptavidin-peroxidase for another 10 min. Diaminobenzidine was used as the chromogen to visualize the biotin/streptavidin-peroxidase complex, under microscope monitoring. Counterstaining was performed using #2 Gill's hematoxylin for 30 sec. For controls, immunoabsorption with an excess of the peptide used to raise the antibody, or substitution with non immune rabbit IgG, was performed.

ERα = assay: Immunohistochemistry of ERα in fifth vaginal segment; assay type: in vivo, rat; details: OVX rats, 36 wk
Description: as §3, §7

rat vagina [6] = assay: Vaginal weight after 36 weeks of treatment; assay type: in vivo; details: OVX rats, 36 wk, mean±SEM; OVX 101±5, intact 205±11
Text: as §3, §4, §6

## C[C@]12CC[C@H](O)CC1=CC[C@@H]1[C@@H]2CC[C@]2(C)C(=O)CC[C@@H]12 [DHEA, dehydroepiandrosterone]
[1]; 0.33 mg
  AUC: 32 ± 4 ng·h/mL
[1]; 0.66 mg
  AUC: 50 ± 7 ng·h/mL
[1]; 1 mg
  AUC: 131 ± 23 ng·h/mL
Rat vagina [2]; DHEA 0.33 mg/suppository intravaginal, segment 6
  vaginal epithelium thickness: 2-5 cell layers
Rat vagina [2]; DHEA 0.33 mg/suppository, unevenly distributed over the whole vagina
  animals displaying mild inflammation: four
Rat vagina [2]; DHEA 0.66 mg/suppository, three external segments
  animals displaying mild inflammation: two
Rat vagina [2]; DHEA 1.00 mg/suppository, four external segments
  animals displaying mild inflammation: four
Rat vagina [3]; fifth segment
  total vaginal thickness lower than that of the Premarin alone-treated group: about 25%
Rat vagina [3]; fifth segment, mean±SEM
  muscularis thickness: 50±2 μm
  thickness of the vaginal epithelium: 38±4 μm
Rat vagina [3]; fifth segment, mean±SEM, OVX 128±3, intact 262±39
  total vaginal wall thickness: 184±21 μm
Rat vagina [3]; fifth segment, mean±SEM, total minus epithelium and muscularis, OVX 76±2, intact 135±28
  lamina propria thickness: 96±20 μm
Rat vagina [3]; 46% decrease after OVX
  reversal of the OVX-induced decrease of the vaginal muscular layer: 41%
Rat vagina [3]; 50% decrease after OVX
  reversal of the OVX-induced decrease in total vaginal wall thickness: 42%
Rat vagina [4]
  histopathologic examination of the vagina: reversal of vaginal mucosal atrophy
Rat vagina [5]; at the doses used
  reversal of the OVX-induced epithelial atrophy: partially reversed
Rat vagina [5]; segment 5
  layers of mucous cells in the vaginal epithelium: 3-5 layers
  epithelium morphology: LHM
Rat vagina [5]; segment 1
  epithelium morphology: KS-LHM
Rat vagina [5]; segment 2
  epithelium morphology: LHM
Rat vagina [5]; segment 3
  epithelium morphology: LHM
Rat vagina [5]; segment 4
  epithelium morphology: LHM
Rat vagina [5]; segment 6
  epithelium morphology: LHM-SCM
Rat vagina [5]; segment 7
  epithelium morphology: LHM-SCM
PR; epithelium
  PR: semi-quantitative evaluation of labeled nuclei: 0
PR; lamina propria
  PR: semi-quantitative evaluation of labeled nuclei: 0
PR; muscularis
  PR: labeling intensity: ++
  PR: semi-quantitative evaluation of labeled nuclei: 1
ERα; epithelium
  ERα: labeling intensity: ++
  ERα: semi-quantitative evaluation of labeled nuclei: 2
ERα; lamina propria
  ERα: labeling intensity: +++
  ERα: semi-quantitative evaluation of labeled nuclei: 2
ERα; muscularis
  ERα: labeling intensity: +++
  ERα: semi-quantitative evaluation of labeled nuclei: 3
Rat vagina [6]
  vaginal weight: 171 ± 12 mg

From US10076525B2, “Sex steroid precursors alone or in combination with selective estrogen receptor modulators for the prevention and treatment of dyspareunia in postmenopausal women” (ENDORECHERCHE, INC., priority 2004, dated 2018)
